Assay results from article PMC5366289 (Biochemistry, 2016).
Entries after “also recorded” stand apart in the source; their conditions may differ.

B1: colicin E1: 522-residue channel-forming colicin (protein, UniProt P02978 1-522, looked up)
Colicin-E1: METAVAYYKDGVPYDDKGQVIITLLNGTPDGSGSGGGGGKGGSKSESSAAIHATAKWSTAQLKKTQAEQAARAKAAAEAQAKAKANRDALTQRLKDIVNEALRHNASRTPSATELAHANNAAMQAEDERLRLAKAEEKARKEAEAAEKAFQEAEQRRKEIEREKAETERQLKLAEAEEKRLAALSEEAKAVEIAQKKLSAAQSEVVKMDGEIKTLNSRLSSSIHARDAEMKTLAGKRNELAQASAKYKELDELVKKLSPRANDPLQNRPFFEATRRRVGAGKIREEKQKQVTASETRINRINADITQIQKAISQVSNNRNAGIARVHEAEENLKKAQNNLLNSQIKDAVDATVSFYQTLTEKYGEKYSKMAQELADKSKGKKIGNVNEALAAFEKYKDVLNKKFSKADRDAIFNALASVKYDDWAKHLDQFAKYLKITGHVSFGYDVVSDILKIKDTGDWKPLFLTLEKKAADAGVSYVVALLFSLLAGTTLGIWGIAIVTGILCSYIDKNKLNTINEVLGI

Assays:
TolC = TolC (Escherichia coli, UniProt P02930); conditions: BLM; concentration not given; listed as synthetic peptide 100–120
Chain of TolC (P02930 23-493): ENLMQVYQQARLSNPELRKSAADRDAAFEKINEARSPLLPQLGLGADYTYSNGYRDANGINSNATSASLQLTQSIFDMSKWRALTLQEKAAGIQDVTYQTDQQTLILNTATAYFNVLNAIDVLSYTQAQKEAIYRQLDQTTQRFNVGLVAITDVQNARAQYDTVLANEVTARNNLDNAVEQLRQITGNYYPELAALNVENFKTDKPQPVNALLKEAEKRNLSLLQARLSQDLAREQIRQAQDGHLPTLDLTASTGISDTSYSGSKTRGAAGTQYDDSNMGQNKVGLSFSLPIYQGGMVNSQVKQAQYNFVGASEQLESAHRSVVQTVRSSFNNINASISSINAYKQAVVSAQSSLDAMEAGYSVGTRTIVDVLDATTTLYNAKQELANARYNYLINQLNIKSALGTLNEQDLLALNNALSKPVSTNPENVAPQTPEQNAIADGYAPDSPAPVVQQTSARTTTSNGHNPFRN

[1] = Far-UV circular dichroism, helical content of T-domain peptides; type: physicochemical
E. coli cells = conditions: ref K. S. Jakes, unpublished data; listed as T100–120; cited from earlier work
[2] = test system: E. coli, TolC Gly43 mutants; conditions: cited from earlier work
[3] = cytoplasmic membrane; cited from earlier work

| Molecule | occlusion of TolC channels, in words (TolC) | no. of residues, helix ([1]; from helical content by far-UV CD, DichroWeb, tags assumed unordered) [residues] | no. of residues, unordered ([1]; total number in peptide excluding tags minus residues in helices) [residues] | protection of E. coli cells against colicin E1 cytotoxicity (E. coli cells) | killing efficiency of colicin E1 on TolC Gly43 mutants ([2]; larger side chains at TolC residue 43) | decrease in colicin E1 cytotoxicity by TolC G43 mutation ([2]; mutation to residue with larger side chains) | channel conductance [3] |
| --- | --- | --- | --- | --- | --- | --- | --- |
| H-EALRHNASRTPSATELAHANN-OH [100–120 ^e] | did not occlude TolC channels | 0 | 21 | inability of the synthetic peptide T100–120, which lacks ordered secondary structure, to occlude TolC channels, and to protect E. coli cells; also recorded: does not protect E. coli cells |  |  |  |
| B1 |  |  |  |  | reduced the killing efficiency | ≤ 1000 -fold | approximately 10^6 ions/s per channel |
